In US10711011B2, “Substituted oxazolidines as anti-bacterial agents” (BUGWORKS RESEARCH, INC., priority 2016, dated 2020):
≈ marks a conversion by molar mass, not a printed value.

How the values were obtained:
P. aurigenosa ATCC 27853 = experiment: Minimum Inhibitory Concentration (MIC) in LB media; type: cell-based, Pseudomonas aurigenosa; details: Pseudomonas, ATCC27853, LB Media
Excerpt: (§1) The compounds of Formula I are of interest due to their potent antibacterial effects. The ability of the invention compounds disclosed herein to achieve an antibacterial effect may be evaluated with regard to their ability to inhibit the growth of bacterial species like Escherichia coli ATCC 25922, Staphylococcus aureus ATCC 29213, Klebsiella pneumoniae ATCC 13883, Acinetobacter baumannii ATCC 19606, Pseudomonas aurigenosa ATCC 27853, Enterococcus faecalis ATCC 29212 and Enterococcus faecalis ATCC 29212 using an assay based on the following Minimum Inhibitory Concentration (MIC) protocol:
(§2) The test bacteria are grown in Luria Bertani Broth (HIMEDIA M1245), 25 grams of the powder is dissolved in 1000 ml distilled water and sterilized by autoclaving at 15 lbs pressure (121° C.) for 20 minutes. The medium sterility is checked by incubating at 37° C. for a period of 48 h.
(§3) Bacterial cultures that are stored as glycerol stocks at −80° C. are sub cultured on LB agar plates to obtain isolated colonies. A single colony of each strain is cultured in LB broth. The cultures are incubated at 37° C., 200 rpm till they reach an optical density (OD at 600 nm) of 0.8 to 1. […] Test compounds are dissolved in dimethyl sulfoxide (DMSO) to a stock concentration of 4 mg/ml. A twofold dilution series of this DMSO stock is prepared in a 96 well V bottom microtitre plate from rows A to H. A 3 μL volume of these dilutions are transferred to a 96-well flat bottom microtitre assay plate. Controls to monitor the effects of DMSO and media sterility are included. Each well is inoculated with 150 μL of the above diluted culture. The plates are incubated at 37° C. overnight in a humidified incubator. The following morning, the plates are read using a Spectrophotometer at 600 nm wavelength. […] The antibacterial activity (MIC) determined against representative Gram positive (S. aureus, E. faecalis) and Gram negative (E. coli, P. aurigenosa, K. pneumoniae and A. baumannii) pathogen were reported Table 1.

E. faecalis ATCC 29212 = experiment: Minimum Inhibitory Concentration (MIC) in LB media; type: cell-based, Enterococcus faecalis; details: Enterococcus faecalis, ATCC29212
Excerpt: as §1, §2, §3

K. pneumoniae ATCC 13883 = experiment: Minimum Inhibitory Concentration (MIC) in LB media; type: cell-based, Klebsiella pneumoniae; details: Klebsiella pneumoniae, ATCC13883, LB Media
Excerpt: as §1, §2, §3

E. coli ATCC 25922 = experiment: Minimum Inhibitory Concentration (MIC) in LB media; type: cell-based, Escherichia coli; details: Escherichia coli, ATCC25922, LB Media
Excerpt: as §1, §2, §3

S. aureus ATCC 29213 = experiment: Minimum Inhibitory Concentration (MIC) in LB media; type: cell-based, Staphylococcus aureus; details: for MIC: Staphylococcus aureus, ATCC29213, LB Media
Excerpt: as §1, §2, §3

A. baumannii ATCC 19606 = experiment: Minimum Inhibitory Concentration (MIC) in LB media; type: cell-based, Acinetobacter baumannii; details: for MIC: Acinetobacter baumannii, ATCC19606, LB Media
Excerpt: as §1, §2, §3

E. coli DNA gyrase = E. coli DNA gyrase (Escherichia coli, UniProt P0AES4+P0AES6); experiment: biochemical; details: supercoiling assay
E. coli topoisomerase IV = E. coli topoisomerase IV (Escherichia coli, UniProt P0AFI2+P20083); experiment: biochemical; details: decatenation assay; read-out: E. coli Topo IV IC50
[1] = tested on: K. pneumoniae (Kpn) clinical strains; experiment: MIC50 and MIC90 studies using clinical strains (CLSI guidelines); type: cell-based
[2] = tested on: P. aurigenosa (Pae) clinical strains; experiment: as above; type: cell-based
[3] = tested on: A. baumannii (Aba) clinical strains; experiment: as above; type: cell-based
E. coli clinical strains = experiment: as above; type: cell-based
[4] = Klebsiella pneumoniae, Kpn, 211 strains
[5] = Acinetobacter baumannii, Aba, 169 strains
[6] = Escherichia coli, E. coli, 201 strains

Sequence of E. coli DNA gyrase (P0AES4 whole entry, one chain of several): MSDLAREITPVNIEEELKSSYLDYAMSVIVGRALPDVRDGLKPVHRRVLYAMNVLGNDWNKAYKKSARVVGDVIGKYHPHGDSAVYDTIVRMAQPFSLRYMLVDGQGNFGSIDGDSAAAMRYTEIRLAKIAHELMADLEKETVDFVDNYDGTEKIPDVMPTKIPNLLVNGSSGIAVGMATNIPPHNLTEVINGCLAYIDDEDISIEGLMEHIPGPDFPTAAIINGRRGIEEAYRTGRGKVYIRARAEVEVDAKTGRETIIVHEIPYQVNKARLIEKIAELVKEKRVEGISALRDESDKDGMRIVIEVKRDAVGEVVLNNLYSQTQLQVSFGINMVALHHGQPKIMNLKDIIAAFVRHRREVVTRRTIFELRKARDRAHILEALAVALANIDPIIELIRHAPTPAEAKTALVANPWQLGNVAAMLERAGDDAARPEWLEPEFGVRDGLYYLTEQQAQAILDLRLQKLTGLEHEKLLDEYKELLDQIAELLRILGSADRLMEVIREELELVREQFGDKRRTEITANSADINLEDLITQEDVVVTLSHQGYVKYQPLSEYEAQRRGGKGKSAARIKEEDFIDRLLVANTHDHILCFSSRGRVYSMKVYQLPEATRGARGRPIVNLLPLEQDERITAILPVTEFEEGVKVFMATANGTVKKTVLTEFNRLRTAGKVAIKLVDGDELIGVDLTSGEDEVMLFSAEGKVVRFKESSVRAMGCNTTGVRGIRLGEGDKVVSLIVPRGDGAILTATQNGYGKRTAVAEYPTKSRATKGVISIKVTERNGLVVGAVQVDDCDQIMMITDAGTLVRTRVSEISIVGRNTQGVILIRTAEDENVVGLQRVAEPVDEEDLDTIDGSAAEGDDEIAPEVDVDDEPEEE
Sequence of E. coli topoisomerase IV (P0AFI2 whole entry): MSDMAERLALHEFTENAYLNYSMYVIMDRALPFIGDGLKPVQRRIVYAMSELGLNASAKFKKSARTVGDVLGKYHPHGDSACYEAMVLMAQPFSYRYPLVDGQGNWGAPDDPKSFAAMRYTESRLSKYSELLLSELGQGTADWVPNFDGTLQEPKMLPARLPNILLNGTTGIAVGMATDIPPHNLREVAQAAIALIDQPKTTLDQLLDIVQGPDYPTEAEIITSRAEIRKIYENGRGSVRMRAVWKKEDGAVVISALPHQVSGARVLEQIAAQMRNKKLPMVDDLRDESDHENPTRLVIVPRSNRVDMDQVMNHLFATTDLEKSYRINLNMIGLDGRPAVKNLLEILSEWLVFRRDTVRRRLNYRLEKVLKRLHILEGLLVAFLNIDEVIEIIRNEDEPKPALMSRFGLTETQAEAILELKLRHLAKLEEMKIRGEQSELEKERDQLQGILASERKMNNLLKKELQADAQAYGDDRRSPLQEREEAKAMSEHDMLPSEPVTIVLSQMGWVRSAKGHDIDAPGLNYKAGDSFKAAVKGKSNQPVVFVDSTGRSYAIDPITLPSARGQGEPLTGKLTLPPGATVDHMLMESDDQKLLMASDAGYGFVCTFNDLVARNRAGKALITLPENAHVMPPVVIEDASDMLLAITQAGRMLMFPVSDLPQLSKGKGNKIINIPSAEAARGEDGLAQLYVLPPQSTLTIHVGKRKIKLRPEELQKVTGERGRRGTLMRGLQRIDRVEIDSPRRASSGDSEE
Sequence of E. coli topoisomerase IV (P20083 whole entry): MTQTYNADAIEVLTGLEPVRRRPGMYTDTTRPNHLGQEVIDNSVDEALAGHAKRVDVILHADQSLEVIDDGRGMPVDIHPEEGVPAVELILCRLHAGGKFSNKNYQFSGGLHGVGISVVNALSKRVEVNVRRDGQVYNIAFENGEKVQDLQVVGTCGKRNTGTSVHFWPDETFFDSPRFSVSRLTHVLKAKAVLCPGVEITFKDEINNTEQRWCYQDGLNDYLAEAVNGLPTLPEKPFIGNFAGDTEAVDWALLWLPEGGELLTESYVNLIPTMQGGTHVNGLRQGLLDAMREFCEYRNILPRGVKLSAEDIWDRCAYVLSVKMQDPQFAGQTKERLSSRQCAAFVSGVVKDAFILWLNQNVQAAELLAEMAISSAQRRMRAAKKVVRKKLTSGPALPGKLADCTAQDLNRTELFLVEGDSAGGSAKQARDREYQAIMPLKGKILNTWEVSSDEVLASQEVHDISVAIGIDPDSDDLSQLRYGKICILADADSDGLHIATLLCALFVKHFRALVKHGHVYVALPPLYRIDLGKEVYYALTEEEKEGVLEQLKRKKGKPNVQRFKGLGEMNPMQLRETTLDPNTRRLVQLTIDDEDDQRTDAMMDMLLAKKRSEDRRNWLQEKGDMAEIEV

| SMILES | MIC (P. aurigenosa ATCC 27853) [µg/mL] | MIC (E. faecalis ATCC 29212) [µg/mL] | MIC (K. pneumoniae ATCC 13883) [µg/mL] | MIC (E. coli ATCC 25922) [µg/mL] | MIC (S. aureus ATCC 29213) [µg/mL] | MIC (A. baumannii ATCC 19606) [µg/mL] | IC50 (E. coli DNA gyrase) [nM] | also measured |
| --- | --- | --- | --- | --- | --- | --- | --- | --- |
| O=C(O)c1cn(C2CC2)c2cc(N3CCNCC3)c(F)cc2c1=O [Ciprofloxacin, reference compound] | 0.1 (≈ 0.302 µM) | 0.4 (≈ 1.21 µM) | 0.05 (≈ 0.151 µM) | 0.012 (≈ 0.0362 µM) | 0.4 (≈ 1.21 µM) | 0.4 (≈ 1.21 µM) |  |  |
| CN1C(=O)Cc2ccc(F)c(C(O)CNCCC3CN(c4ccc5c(n4)NC(=O)CO5)C(=O)O3)c21 (stereo not shown) [Example 15, 6-(5-(2-((2-(6-fluoro-1-methyl-2-oxoindolin-7-yl)-2-hydroxyethyl)amino)ethyl)-2-oxooxazolidin-3-yl)-2H-pyrido[3,2-b][1,4]oxazin-3(4H)-one] | 2 (≈ 4.12 µM) | 2 (≈ 4.12 µM) | 2 (≈ 4.12 µM) | 1 (≈ 2.06 µM) | 1 (≈ 2.06 µM) | 4 (≈ 8.24 µM) | 135 |  |
| Cc1ncc(N2CC(CCNCc3c(F)ccc4c3N(C)C(=O)C4)OC2=O)cc1C#N (stereo not shown) [Example 5, 5-(5-(2-(((6-Fluoro-1-methyl-2-oxoindolin-7-yl)methyl)amino)ethyl)-2-oxooxazolidin-3-yl)-2-methylnicotinonitrile] | > 80 | 80 (≈ 189 µM) | > 80 | 80 (≈ 189 µM) | 80 (≈ 189 µM) | 40 (≈ 94.5 µM) |  |  |
| CN1C(=O)Cc2ccc(F)c(CCNCCC3CN(c4ccc5c(n4)NC(=O)CO5)C(=O)O3)c21 (racemic) [Example 11, 6-(5-(2-((2-(6-fluoro-1-methyl-2-oxoindolin-7-yl)ethyl)amino)ethyl)-2-oxooxazolidin-3-yl)-2H-pyrido[3,2-b][1,4]oxazin-3(4H)-one] | 0.5 (≈ 1.07 µM) | 0.13 (≈ 0.277 µM) | 0.125 (≈ 0.266 µM) | 0.06 (≈ 0.128 µM) | 0.03 (≈ 0.0639 µM) | 0.03 (≈ 0.0639 µM) | 55 |  |
| CN1C(=O)Cc2ccc(F)c(CNCCC3CN(c4ccc5c(n4)NC(=O)CO5)C(=O)O3)c21 (stereo not shown) [Example 2, 6-(5-(2-(((6-Fluoro-1-methyl-2-oxoindolin-7-yl)methyl)amino)ethyl)-2-oxooxazolidin-3-yl)-2H-pyrido[3,2-b][1,4]oxazin-3(4H)-on] | 10 (≈ 22 µM) | 1.25 (≈ 2.74 µM) | 2.5 (≈ 5.49 µM) | 1.25 (≈ 2.74 µM) | 0.6 (≈ 1.32 µM) | 0.3 (≈ 0.659 µM) | 360 |  |
| CN1C(=O)Cc2ccc(F)c(CNCCCC3CN(c4ccc5c(n4)NC(=O)CO5)C(=O)O3)c21 (single isomer, unassigned) [Example 9, 6-(5-(3-(((6-fluoro-1-methyl-2-oxoindolin-7-yl)methyl)amino)propyl)-2-oxooxazolidin-3-yl)-2H-pyrido[3,2-b][1,4]oxazin-3(4H)-one] | 2 (≈ 4.26 µM) | 0.5 (≈ 1.07 µM) | 0.5 (≈ 1.07 µM) | 0.25 (≈ 0.533 µM) |  |  | 89 | Minimum Inhibitory Concentration S. aureus ATCC 29213 (S. aureus ATCC 29213; LB Media): 0.13 µg/mL; Minimum Inhibitory Concentration A. baumannii ATCC 19606 (A. baumannii ATCC 19606; LB Media): 0.125 µg/mL |
| CN1C(=O)Cc2ccc(F)c(CNCCCC3CN(c4ccc5c(c4)NC(=O)CO5)C(=O)O3)c21 (stereo not shown) [Example 12, 6-(5-(3-(((6-fluoro-1-methyl-2-oxoindolin-7-yl)methyl)amino)propyl)-2-oxooxazolidin-3-yl)-2H-benzo[b][1,4]oxazin-3(4H)-one] | 2 (≈ 4.27 µM) | 0.5 (≈ 1.07 µM) | 0.5 (≈ 1.07 µM) | 0.25 (≈ 0.534 µM) | 0.25 (≈ 0.534 µM) | 0.13 (≈ 0.277 µM) | 89 | IC50 (E. coli topoisomerase IV): 600 nM |
| CN1C(=O)Cc2cccc(CNCCC3CN(c4ccc5c(n4)NC(=O)CO5)C(=O)O3)c21 (stereo not shown) [Example 1, 6-(5-(2-(((1-Methyl-2-oxoindolin-7-yl)methyl)amino)ethyl)-2-oxooxazolidin-3-yl)-2H-pyrido[3,2-b][1,4]oxazin-3(4H)-one] | 40 (≈ 91.4 µM) | 5 (≈ 11.4 µM) | 10 (≈ 22.9 µM) | 2.5 (≈ 5.71 µM) | 5 (≈ 11.4 µM) | 0.6 (≈ 1.37 µM) |  |  |
| CN1C(=O)Cc2ccc(F)c(CNCCC3CN(c4ccc5c(c4)NC(=O)CO5)C(=O)O3)c21 (stereo not shown) [Example 3, 6-(5-(2-(((6-fluoro-1-methyl-2-oxoindolin-7-yl)methyl)amino)ethyl)-2-oxooxazolidin-3-yl)-2H-benzo[b][1,4]oxazin-3(4H)-one] | 20 (≈ 44 µM) | 1.25 (≈ 2.75 µM) | 5 (≈ 11 µM) | 1.25 (≈ 2.75 µM) | 0.6 (≈ 1.32 µM) | 0.6 (≈ 1.32 µM) |  |  |
| CCN1C(=O)Cc2ccc(F)c(CNCCC3CN(c4ccc5c(n4)NC(=O)CO5)C(=O)O3)c21 (stereo not shown) [Example 7, 6-(5-(2-(((1-Ethyl-6-fluoro-2-oxoindolin-7-yl)methyl)amino)ethyl)-2-oxooxazolidin-3-yl)-2H-pyrido[3,2-b][1,4]oxazin-3(4H)-one] | 20 (≈ 42.6 µM) | 0.6 (≈ 1.28 µM) | 5 (≈ 10.7 µM) | 1.25 (≈ 2.66 µM) | 0.15 (≈ 0.32 µM) | 0.3 (≈ 0.639 µM) |  |  |
| CN1C(=O)Cc2ccc(F)c(CNCCCC3CN(c4ccc5c(n4)NC(=O)CO5)C(=O)O3)c21 (racemic) [Example 6, 6-(5-(3-(((6-fluoro-1-methyl-2-oxoindolin-7-yl)methyl)amino)propyl)-2-oxooxazolidin-3-yl)-2H-pyrido[3,2-b][1,4]oxazin-3(4H)-one] | 1 (≈ 2.13 µM) | 0.5 (≈ 1.07 µM) | 0.5 (≈ 1.07 µM) | 0.25 (≈ 0.533 µM) | 0.13 (≈ 0.277 µM) | 0.25 (≈ 0.533 µM) | 56 | IC50 (E. coli topoisomerase IV): 459 nM |
| CN1C(=O)Cc2ncc(F)c(CNCCCC3CN(c4ccc5c(n4)NC(=O)CO5)C(=O)O3)c21 (stereo not shown) [Example 17, 6-(5-(3-(((6-Fluoro-1-methyl-2-oxo-2,3-dihydro-1H-pyrrolo[3,2-b]pyridin-7-yl)methyl)amino)propyl)-2-oxooxazolidin-3-yl)-2H-pyrido[3,2-b][1,4]oxazin-3(4H)-one] | > 16 | 4 (≈ 8.5 µM) | 2 (≈ 4.25 µM) | 1 (≈ 2.13 µM) | 1 (≈ 2.13 µM) | 0.5 (≈ 1.06 µM) |  |  |
| CN1C(=O)C(C)(C)c2ccc(F)c(CNCCC3CN(c4ccc5c(n4)NC(=O)CO5)C(=O)O3)c21 (stereo not shown) [Example 4, 6-(5-(2-(((6-fluoro-1,3,3-trimethyl-2-oxoindolin-7-yl)methyl)amino)ethyl)-2-oxooxazolidin-3-yl)-2H-pyrido[3,2-b][1,4]oxazin-3(4H)-one] | > 80 | > 80 | > 80 | > 80 | > 80 | > 80 | 14000 |  |
| C[C@@H](O)[C@H]1C(=O)N2C(C(=O)O)=C(S[C@@H]3CN[C@H](C(=O)N(C)C)C3)[C@H](C)[C@H]12 [Meropenem, reference compound] |  |  |  |  |  |  |  | MIC50 [1, 4]: 1 µg/mL (≈ 2.61 µM); MIC90 [1, 4]: 16 µg/mL (≈ 41.7 µM); MIC ATCC13883 ([1]; Kpn reference strain ATCC13883, unit inferred): 0.06 µg/mL (≈ 0.156 µM); Minimum (MIC) ([1]; Kpn, 211 strains, unit inferred): 0.03 µg/mL; MIC ATCC27853 ([2]; Pae reference strain ATCC27853, unit inferred): 0.5 µg/mL (≈ 1.3 µM); MIC50 ([2]; Pae, 215 strains): 2 µg/mL (≈ 5.22 µM); MIC90 ([2]; Pae, 215 strains): 8 µg/mL (≈ 20.9 µM); Minimum (MIC) ([2]; Pae, 215 strains, unit not given, in µg/mL): 0.03; MIC ATCC19606 ([3]; Aba reference strain ATCC19606, unit inferred): 0.5 µg/mL (≈ 1.3 µM); Minimum (MIC) ([3]; Aba, 169 strains, unit not given, in µg/mL): 0.03125; MIC50 [3, 5]: 8 µg/mL (≈ 20.9 µM); MIC90 [3, 5]: 32 µg/mL (≈ 83.4 µM); MIC ATCC25922 (E. coli clinical strains; E. coli reference strain ATCC25922, no unit in this row (MIC50/MIC90 rows: μg/ml)): 0.06 µg/mL (≈ 0.156 µM); Minimum (MIC) (E. coli clinical strains; E. coli, 201 strains, unit inferred): 0.03 µg/mL; MIC50 (E. coli clinical strains; [6]): 0.06 µg/mL (≈ 0.156 µM); MIC90 (E. coli clinical strains; [6]): 4 µg/mL (≈ 10.4 µM) |
| Cn1c(=O)oc2ccc(F)c(CCNCCC3CN(c4ccc5c(n4)NC(=O)CO5)C(=O)O3)c21 (stereo not shown) [Example 16, 6-(5-(2-((2-(5-Fluoro-3-methyl-2-oxo-2,3-dihydrobenzo[d]oxazol-4-yl)ethyl)amino)ethyl)-2-oxooxazolidin-3-yl)-2H-pyrido[3,2-b][1,4]oxazin-3(4H)-one] | 4 (≈ 8.48 µM) | 4 (≈ 8.48 µM) | 1 (≈ 2.12 µM) | 0.5 (≈ 1.06 µM) | 4 (≈ 8.48 µM) | 0.5 (≈ 1.06 µM) |  |  |
